Data published in PMC8035174, “The Pseudomonas aeruginosa substrate-binding protein Ttg2D functions as a general glycerophospholipid transporter across the periplasm” (Communications Biology, 2021).
In brackets after ≈: the same amount, converted by molar mass.

test system: T1, Pseudomonas aeruginosa PAO1; experiment: microbe, parasite or virus in culture; set-up: broth microdilution MIC in cation-adjusted Mueller-Hinton broth, visual growth or resazurin; conditions: PAO1, 20 h, read-out: MIC PAO1
T1 construct: PAO1
Description: Analysis of antimicrobial susceptibilities. […] The BMD method was performed on cation adjusted MH broth (CAMHB) as recommended 41, 42 . Bacteria were first grown overnight in CAMHB using CLSI-recommended incubation conditions and the antibiotics were serially diluted twofold across the 96 well plates. After that, 100 µl of a bacterial suspension diluted to 5x10^5 CFU/ml in CAMHB was added to the wells containing the antibiotic dilutions. The 96-well plates were incubated for 20 h at 37°C before developing by visual inspection or with the resazurin dye 43 . MIC was defined as the lowest concentration of the antibiotic (in μg/ml) that prevented visual growth. As the LESB58 isolate is considered a slower growing strain compared to laboratory strain PAO1 44, incubation for bacterial growth was extended to 48 h instead of 24 h for some protocols. […] For Etest a 0.5 McFarland suspension was used to create a confluent lawn of microbial growth in 150-mm Mueller-Hinton (MH) agar plates. The MIC values were determined according to the Etest reading guide after 18 h incubation at 37°C. MICs were determined as the concentration at which the zone of inhibition intersected the Etest strip.

Compound	MIC [µg/mL]
CN[C@@H]1[C@H](O[C@H]2[C@H](O[C@H]3[C@H](O)[C@@H](O)[C@H](N=C(N)N)[C@@H](O)[C@@H]3N=C(N)N)O[C@@H](C)[C@]2(O)C=O)O[C@@H](CO)[C@H](O)[C@H]1O [Streptomycin]	8 (≈ 13.8 µM)
CC1COc2c(N3CCN(C)CC3)c(F)cc3c(=O)c(C(=O)O)cn1c23 (stereo not shown) [Ofloxacin]	8 (≈ 22.1 µM)
C[C@H]1COc2c(N3CCN(C)CC3)c(F)cc3c(=O)c(C(=O)O)cn1c23 [Levofloxacin]	4 (≈ 11.1 µM)
C[C@@H](O)[C@H]1C(=O)N2C(C(=O)O)=C(S[C@@H]3CN[C@H](C(=O)N(C)C)C3)[C@H](C)[C@H]12 [Meropenem]	1 (≈ 2.61 µM)
CC1(C)S[C@@H]2[C@H](NC(=O)[C@H](C(=O)O)c3ccsc3)C(=O)N2[C@H]1C(=O)O [Ticarcillin]	16 (≈ 41.6 µM)
CN(C)c1cc(NC(=O)CNC(C)(C)C)c(O)c2c1C[C@H]1C[C@H]3[C@H](N(C)C)C(O)=C(C(N)=O)C(=O)[C@@]3(O)C(O)=C1C2=O [Tigecycline]	32 (≈ 54.6 µM)
C[C@@H](O)[C@H]1C(=O)N2C(C(=O)O)=C(SCCNC=N)C[C@H]12 [Imipenem]	4 (≈ 13.4 µM)
CCN1CCN(C(=O)N[C@@H](C(=O)N[C@@H]2C(=O)N3[C@@H]2SC(C)(C)[C@@H]3C(=O)O)c2ccccc2)C(=O)C1=O [Piperacillin]	2 (≈ 3.86 µM)
NCC[C@H](O)C(=O)N[C@@H]1C[C@H](N)[C@@H](O[C@H]2O[C@H](CN)[C@@H](O)[C@H](O)[C@H]2O)[C@H](O)[C@H]1O[C@H]1O[C@H](CO)[C@@H](O)[C@H](N)[C@H]1O [Amikacin]	2 (≈ 3.42 µM)
CCn1cc(C(=O)O)c(=O)c2cc(F)c(N3CCNCC3)cc21 [Norfloxacin]	4 (≈ 12.5 µM)
CN(C)c1ccc(O)c2c1C[C@H]1C[C@H]3[C@H](N(C)C)C(O)=C(C(N)=O)C(=O)[C@@]3(O)C(O)=C1C2=O [Minocycline]	32 (≈ 69.9 µM)
CC(C)(O/N=C(\C(=O)N[C@@H]1C(=O)N2C(C(=O)[O-])=C(C[n+]3ccccc3)CS[C@H]12)c1csc(N)n1)C(=O)O [Ceftazidime]	1 (≈ 1.83 µM)
O=C(N[C@H](CO)[C@H](O)c1ccc([N+](=O)[O-])cc1)C(Cl)Cl [Chloramphenicol]	> 256
